Measured values published in paper PMC4745783, “The HGF inhibitory peptide HGP-1 displays promising in vitro and in vivo efficacy for targeted cancer therapy” (Oncotarget, 2015).
“Also recorded” adds a separate entry of the source. Where no end group is shown, it is not given here. The star is where a group is joined. FITC = O=C1OC2(c3ccc(O)cc3Oc3cc(O)ccc32)c2ccc(NC(=S)*)cc21

Tests used:
A549 cells [1] = format: cell-based, human
Protocol: A549 cells were seeded in a 96-well plate at a density of 7000 cells per well. After overnight culture, cells were starved with serum free DMEM medium for 48 hours. […] After cultured for 4 days, the cell culture medium was changed with fresh medium containing 0.5 mg/mL 3-(4, 5-Dimethylthiazol-2-yl)-2, 5-diphenyltetrazolium bromide (MTT) solution for another 4 hours incubation at 37°C, in 5% CO2. Then, medium was removed and cells were lysed with dimethyl sulfoxide. The absorption of the solution in each well was measured at 490 nm on a VECTOR X4 Multilabel Plate Reader. IC50 value was also determined and calculated by GraphPad Prism 5.

human full length HGF = target: T1, human full length HGF (Homo sapiens, UniProt P14210); test: SPR affinity and kinetics; format: binding; conditions: Biacore X100, CM5 chip
T1 construct: purchased Sino Biological Inc. 10463- NHAC-A
Protocol: (§1) To pre-assess the binding ability of peptide to HGF, peptides were coated on the fluorescence plates and incubated with HGF. The well coated with HGP-1 had at least 1500 times higher RFU than the one with SP-H1. […] In order to obtain a precise affinity data of HGP-1, the affinity and kinetics of HGP-1 against HGF was detected by SPR technique (Figure 3a). HGF was immobilized on the surface of a CM5 chip. […] Different concentrations of HGP-1 were injected over the surface of the chip followed by dissociation in buffer without peptide.
Kinetic (ka and kd) and affinity constant (KD) of soluble peptide were determined by surface plasmon resonance technique on a Biacore X100 instrument (GE healthcare). The research-grade CM5 sensor chip was activated following the process which was recommended in the amino coupling reagent kit. Human full length HGF was dissolved in PBS and diluted to a suitable concentration by 20 mM NaCOOH buffer (pH4.0) and immobilized on the chip, and 2000 resonance units were immobilized. The remaining reactive groups were inactivated by ethanolamine. The peptide was dissolved and diluted by HBS-EP ([…], 150 mM NaCl, 3 mM EDTA-Na2 and 0.005% P20, pH7.4). Samples composed of concentrations ranging from 0 to 100 μM of peptides were injected over the protein surface. […] Ka, Kd and KD were calculated by Biacore X100 Evaluation software.

A549 cells [2] = test: MTT cytotoxicity in HGF-free environment; conditions: 61.5 nM, 615 nM, 3.075 μM; 4-day, medium with 10% FBS; n = 4
Protocol: MTT assay was also used to assess the cytotoxicity of peptides after 4-day incubation with peptides at different concentrations in the medium with 10% FBS. The cells were seeded in the 96-well plate at density of 2000 cells per well.

HGF [3] = test: Binding of HGF to peptides displayed on bacteria, regular vs stringent washing, flow cytometry; set-up: species or system human; conditions: PE-A fluorescence; for binding to HGF in washed group: displayed on bacteria, washed (PBS pH 7.4, 3 times, 4°C, 10 min) vs regular washing
Protocol: Peptide physicochemical properties were preliminarily analyzed with bacteria clones. To evaluate the binding ability of peptides on the surface of bacteria to HGF, the PE-A fluorescence intensity of each clone with different wash procedures were determined by flow cytometry. Bacteria clones undergoing regular or stringent washing procedures after incubation with HGF were prepared. […] Bacteria clones were subcultured and induced as described before. Then, 10^7 bacteria of each clone were incubated with biotinylated HGF referring to sorting procedure. After incubating with HGF, bacteria were divided into two groups. The ‘original’ group was washed referring to sorting procedure, and the ‘washed’ group would have a tough washing. After centrifuged at 3000 × g for 5 minutes, bacteria in ‘washed’ group were resuspended by 1 mL phosphate buffered saline (PBS, PH 7.4) and inverted at 4°C for 10 minutes. The washing steps were repeated for 3 times. Samples from two groups were analyzed by flow cytometry.

HGF [4] = test: ELISA, peptides coated on fluorescence plates and incubated with HGF; format: binding, human; conditions: peptide coated, incubated with HGF
Protocol: as §1

MDA-MB-435s cells [5] = test: Wound healing (scratch) migration assay with HGF; format: cell-based, human; conditions: HGF 0.625 nM, 2-day treatment
Protocol: MDA-MB-435s cells were plated on a 24-well plate (1 × 10^5 cells/well), grown to an 80–90% confluent cell monolayer, and serum-starved for 24 hours. Wounds were scratched gently with tip of a plastic pipet and washed twice with PBS. Subsequently, HGF (0.625 nM) alone or coupled with peptides at the concentrations of 61.5 nM and 615 nM were added into the wells for 2 days treatment. Each well was photographed at 10 × magnification with light microscope before and after peptide treatment. The cell migration capabilities were assessed by calculating the width alteration of the wound area by Photoshop. The percentage of cell migration followed the equation: Percent migration=width before treatment-width after treatment/width before treatment×100%

MDA-MB-435s cells [6] = test: Wound healing assay without HGF (non-specific inhibition); format: cell-based, human; conditions: 61.5 nM and 615 nM; one day, medium with 10% FBS; n = 3
Protocol: Wound healing assay was applied to evaluate the inhibitory effect of peptides to cell migration after one-day incubation with peptides at different concentrations in medium with 10% FBS.

[7] = target: T2, Recombinant human full length HGF (human, UniProt P14210 32-728); test: SPR; Biacore X100; HGF immobilised on a CM5 chip by amine coupling (2000 RU); peptide 0 to 100 μM in HBS-EP pH 7.4, 30 μL/min, 2 minutes injection, 8 minutes dissociation; conditions: both partners purified
T2 construct: also called hepatocyte growth factor; source: bought: Sino Biological Inc

[8] = target: T2, Recombinant human full length HGF; test: cell-based or functional assay

T2 sequence (P14210 32-728): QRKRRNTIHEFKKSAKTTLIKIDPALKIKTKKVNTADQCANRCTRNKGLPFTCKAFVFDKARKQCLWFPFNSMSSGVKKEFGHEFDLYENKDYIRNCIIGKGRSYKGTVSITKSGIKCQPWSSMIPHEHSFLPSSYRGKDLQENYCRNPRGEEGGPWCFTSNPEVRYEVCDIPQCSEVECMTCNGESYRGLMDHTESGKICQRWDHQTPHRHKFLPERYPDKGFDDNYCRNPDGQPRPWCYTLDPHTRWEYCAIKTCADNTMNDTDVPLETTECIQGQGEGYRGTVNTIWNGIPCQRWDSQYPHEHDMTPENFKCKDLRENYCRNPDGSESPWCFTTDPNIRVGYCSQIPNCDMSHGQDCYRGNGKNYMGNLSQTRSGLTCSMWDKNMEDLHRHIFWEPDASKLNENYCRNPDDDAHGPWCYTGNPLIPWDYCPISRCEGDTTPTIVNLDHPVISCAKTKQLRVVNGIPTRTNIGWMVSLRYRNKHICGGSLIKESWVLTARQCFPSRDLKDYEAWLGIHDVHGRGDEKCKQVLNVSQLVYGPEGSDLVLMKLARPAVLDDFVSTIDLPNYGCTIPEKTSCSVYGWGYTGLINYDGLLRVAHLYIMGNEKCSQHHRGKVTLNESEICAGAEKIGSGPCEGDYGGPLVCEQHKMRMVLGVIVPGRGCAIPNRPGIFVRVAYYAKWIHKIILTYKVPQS
T1 sequence (P14210 32-728): as above

## HRGLKWEIVPWSGCG [HGP-1]
A549 cells [1]; 48 h
  IC50: 496 µM
Human full length HGF; HBS-EP pH 7.4, 30 μL/min, 2 min injection, read-out: ka
  kon: 698 M⁻¹ s⁻¹
Human full length HGF; HBS-EP pH 7.4, 8 min dissociation, printed kb
  kb: 0.001243 s⁻¹
A549 cells [2]
  cytotoxicity to cell proliferation in HGF-free environment: did not exhibit detectable cytotoxicity

## TLYEVDLREWCAGIVG [HGP-2]
A549 cells [1]; 61.5 nM, 615 nM, 3.075 μM, HGF, 4-day treatment, n = 3
  inhibitory effect on cell proliferation: inhibited
HGF [3]
  binding to HGF in washed group: had an obvious reduction
HGF [4]
  RFU relative to SP-H1 coated well: 700 times
MDA-MB-435s cells [5]
  inhibitory effect on cell migration: inhibited; also recorded: displayed a similar effect on MDA-MB-435s
MDA-MB-435s cells [6]
  inhibitory effect on migration without HGF: no obvious inhibitory effect

## TYFTWWELSPGCEEH [HGP-3]
HGF [3]; flow cytometry
  binding capability to HGF when displayed on the surface of bacteria, compared with HGP-2: higher binding capability to HGF compared with HGP-2
HGF [3]
  binding to HGF in washed group: bound to their targets as well as the regular ones

B1: HGF binding peptide-1, soluble synthetic peptide (peptide)
peptide: {FITC}-HRGLKWEIVPWSGCG
notes: the peptide of bacteria clone 1, synthesized free of bacteria; The methods say in general that FITC was labeled at the N-terminal of the peptides; also called HGP-1; FITC-labeled HGP-1; source: synthetic peptide (Shanghai Bootech Bioscience & Technology Co., Ltd.)
[7]
  Kd: 1.73 µM
  koff: 0.00124 s⁻¹
  kon: 698 M⁻¹ s⁻¹
[8]
  IC50 of inhibition of HGF (1 nM)-mediated A549 proliferation, MTT assay, 4 days: 496 µM
